Experimental data reported in US11272709B2, “Amidine substituted benzoyl derivatives useful as herbicides” (Syngenta Participations AG, priority 2018, dated 2022).

Tests used:
Assay type in all cases: in vivo
Details in all cases: evaluated after 13 days
[1] = tested on: Abutilon theophrasti (ABUTH); experiment: Post-emergence herbicidal glasshouse test, Abutilon theophrasti (ABUTH)
Experimental: (§1) Seeds of a variety of test species are sown in standard soil in pots (Lolium perenne (LOLPE), Amaranthus retoflexus (AMARE), Abutilon theophrasti (ABUTH), Setaria faberi (SETFA), Echinochloa crus-galli (ECHCG), Ipomoea hederacea (IPOHE)). After cultivation for one day (pre-emergence) or after 8 days cultivation (post-emergence) under controlled conditions in a glasshouse (at 24/16° C., day/night; 14 hours light; 65% humidity), the plants are sprayed with an aqueous spray solution derived from the formulation of the technical active ingredient in acetone/water (50:50) solution containing 0.5% Tween 20 (polyoxyethelyene sorbitan monolaurate, CAS RN 9005-64-5). Compounds are applied at 500 g/h unless otherwise indicated. The test plants are then grown in a glasshouse under controlled conditions in a glasshouse (at 24/16° C., day/night; 14 hours light; 65% humidity) and watered twice daily. After 13 days for pre and post-emergence, the test is evaluated for the percentage damage caused to the plant. The biological activities are shown in the following table on a five point scale (5=80-100%; 4=60-79%; 3=40-59%; 2=20-39%; 1=0-19%).

[2] = tested on: Amaranthus retoflexus (AMARE); experiment: Pre-emergence herbicidal glasshouse test, Amaranthus retoflexus (AMARE)
Experimental: as §1

[3] = tested on: Ipomoea hederacea (IPOHE); experiment: Pre-emergence herbicidal glasshouse test, Ipomoea hederacea (IPOHE)
Experimental: as §1

[4] = tested on: Amaranthus retoflexus (AMARE); experiment: Post-emergence herbicidal glasshouse test, Amaranthus retoflexus (AMARE)
Experimental: as §1

[5] = tested on: Echinochloa crus-galli (ECHCG); experiment: Post-emergence herbicidal glasshouse test, Echinochloa crus-galli (ECHCG)
Experimental: as §1

[6] = tested on: Ipomoea hederacea (IPOHE); experiment: Post-emergence herbicidal glasshouse test, Ipomoea hederacea (IPOHE)
Experimental: as §1

[7] = tested on: Setaria faberi (SETFA); experiment: Pre-emergence herbicidal glasshouse test, Setaria faberi (SETFA)
Experimental: as §1

[8] = tested on: Echinochloa crus-galli (ECHCG); experiment: Pre-emergence herbicidal glasshouse test, Echinochloa crus-galli (ECHCG)
Experimental: as §1

[9] = tested on: Setaria faberi (SETFA); experiment: Post-emergence herbicidal glasshouse test, Setaria faberi (SETFA)
Experimental: as §1

[10] = tested on: Abutilon theophrasti (ABUTH); experiment: Pre-emergence herbicidal glasshouse test, Abutilon theophrasti (ABUTH)
Experimental: as §1

SMILES | POST Application ABUTH, percentage damage (five point scale) ([1]; 500 g/h) | PRE Application AMARE, percentage damage (five point scale) ([2]; 500 g/h) | PRE Application IPOHE, percentage damage (five point scale) ([3]; 500 g/h) | POST Application AMARE, percentage damage (five point scale) ([4]; 500 g/h) | POST Application ECHCG, percentage damage (five point scale) ([5]; 500 g/h) | POST Application IPOHE, percentage damage (five point scale) ([6]; 500 g/h) | PRE Application SETFA, percentage damage (five point scale) ([7]; 500 g/h) | PRE Application ECHCG, percentage damage (five point scale) ([8]; 500 g/h) | POST Application SETFA, percentage damage (five point scale) ([9]; 500 g/h) | PRE Application ABUTH, percentage damage (five point scale) ([10]; 500 g/h) | other results
Cc1c(C(=O)Nc2nnnn2C)ccc(C(F)(F)F)c1N=CN(C)C [Compound 1.017] | 5 (5=80-100%) | 5 (5=80-100%) | 5 (5=80-100%) | 5 (5=80-100%) | 5 (5=80-100%) | 5 (5=80-100%) | 5 (5=80-100%) | 5 (5=80-100%) | 5 (5=80-100%) | 5 (5=80-100%) | –
Cc1c(C(=O)Nc2nnnn2C)ccc(S(C)(=O)=O)c1/N=C/N(C)C [Compound 1.025, 3-[(E)-dimethylaminomethyleneamino]-2-methyl-4-methylsulfonyl-N-(1-methyltetrazol-5-yl)benzamide] | 5 (5=80-100%) | 5 (5=80-100%) | 5 (5=80-100%) | 5 (5=80-100%) | 5 (5=80-100%) | 5 (5=80-100%) | 5 (5=80-100%) | 5 (5=80-100%) | 5 (5=80-100%) | 5 (5=80-100%) | –
CCN(C)C=Nc1c(S(C)(=O)=O)ccc(C(=O)Nc2nnnn2C)c1C [Compound 1.027] | 5 (5=80-100%) | 5 (5=80-100%) | 5 (5=80-100%) | 5 (5=80-100%) | 5 (5=80-100%) | 5 (5=80-100%) | 5 (5=80-100%) | 5 (5=80-100%) | 5 (5=80-100%) | 5 (5=80-100%) | –
CCN(C=Nc1c(S(C)(=O)=O)ccc(C(=O)Nc2nnnn2C)c1C)CC [Compound 1.031] | 5 (5=80-100%) | 5 (5=80-100%) | 4 (4=60-79%) | 5 (5=80-100%) | 5 (5=80-100%) | 5 (5=80-100%) | 5 (5=80-100%) | 5 (5=80-100%) | 5 (5=80-100%) | 5 (5=80-100%) | –
CN(C)C=Nc1c(Cl)ccc(C(=O)Nc2nnnn2C)c1Cl [Compound 1.041] | 5 (5=80-100%) | 5 (5=80-100%) | 5 (5=80-100%) | 5 (5=80-100%) | 5 (5=80-100%) | 5 (5=80-100%) | – | 5 (5=80-100%) | 5 (5=80-100%) | 5 (5=80-100%) | –
CCN(C=Nc1c(C(F)(F)F)ccc(C(=O)Nc2nnnn2C)c1Cl)CC [Compound 1.055] | 5 (5=80-100%) | 5 (5=80-100%) | 5 (5=80-100%) | 5 (5=80-100%) | 5 (5=80-100%) | 5 (5=80-100%) | 5 (5=80-100%) | 5 (5=80-100%) | 5 (5=80-100%) | 5 (5=80-100%) | –
CN(C)C=Nc1c(S(C)(=O)=O)ccc(C(=O)Nc2nnnn2C)c1Cl [Compound 1.057] | – | – | – | – | – | – | – | – | – | – | POST Application ABUTH, percentage damage (five point scale) ([1]; applied at 125 g/ha): 5 (5=80-100%); PRE Application AMARE, percentage damage (five point scale) ([2]; applied at 125 g/ha): 5 (5=80-100%); PRE Application IPOHE, percentage damage (five point scale) ([3]; applied at 125 g/ha): 5 (5=80-100%); POST Application AMARE, percentage damage (five point scale) ([4]; applied at 125 g/ha): 5 (5=80-100%); POST Application ECHCG, percentage damage (five point scale) ([5]; applied at 125 g/ha): 5 (5=80-100%); POST Application IPOHE, percentage damage (five point scale) ([6]; applied at 125 g/ha): 5 (5=80-100%); PRE Application SETFA, percentage damage (five point scale) ([7]; applied at 125 g/ha): 5 (5=80-100%); PRE Application ECHCG, percentage damage (five point scale) ([8]; applied at 125 g/ha): 5 (5=80-100%); POST Application SETFA, percentage damage (five point scale) ([9]; applied at 125 g/ha): 5 (5=80-100%); PRE Application ABUTH, percentage damage (five point scale) ([10]; applied at 125 g/ha): 5 (5=80-100%)
CC(=NOCc1c(S(C)(=O)=O)ccc(C(=O)Nc2nnnn2C)c1Cl)N(C)C [Compound 1.129] | 5 (5=80-100%) | 5 (5=80-100%) | 5 (5=80-100%) | 5 (5=80-100%) | 5 (5=80-100%) | 5 (5=80-100%) | 5 (5=80-100%) | 5 (5=80-100%) | 5 (5=80-100%) | 5 (5=80-100%) | –
CN(/C=N/c1c(C(F)(F)F)ccc(C(=O)Nc2nnnn2C)c1Cl)CC(F)(F)F [Compound 1.130, 2-chloro-N-(1-methyltetrazol-5-yl)-3-[(E)-[methyl(2,2,2-trifluoroethyl)amino]methyleneamino]-4-(trifluoromethyl)benzamide] | 5 (5=80-100%) | 5 (5=80-100%) | 5 (5=80-100%) | 5 (5=80-100%) | 5 (5=80-100%) | 5 (5=80-100%) | 5 (5=80-100%) | 5 (5=80-100%) | 5 (5=80-100%) | 5 (5=80-100%) | –
CN(C=Nc1c(C(F)(F)F)ccc(C(=O)Nc2nnnn2C)c1Cl)c1ccccc1 [Compound 1.131] | 5 (5=80-100%) | 5 (5=80-100%) | 5 (5=80-100%) | 5 (5=80-100%) | 5 (5=80-100%) | 5 (5=80-100%) | 5 (5=80-100%) | 5 (5=80-100%) | 5 (5=80-100%) | 5 (5=80-100%) | –
Cn1nnnc1NC(=O)c1ccc(C(F)(F)F)c(/N=C/N2CCCC2)c1Cl [Compound 1.132, 2-chloro-N-(1-methyltetrazol-5-yl)-3-[(E)-pyrrolidin-1-ylmethyleneamino]-4-(trifluoromethyl)benzamide] | 5 (5=80-100%) | 5 (5=80-100%) | 5 (5=80-100%) | 5 (5=80-100%) | 5 (5=80-100%) | 5 (5=80-100%) | 5 (5=80-100%) | 5 (5=80-100%) | 5 (5=80-100%) | 5 (5=80-100%) | –
Cn1nnnc1NC(=O)c1ccc(C(F)(F)F)c(N=CN2CCOCC2)c1Cl [Compound 1.135] | – | – | – | – | – | – | – | – | – | – | POST Application ABUTH, percentage damage (five point scale) ([1]; applied at 250 g/ha): 5 (5=80-100%); PRE Application AMARE, percentage damage (five point scale) ([2]; applied at 250 g/ha): 5 (5=80-100%); PRE Application IPOHE, percentage damage (five point scale) ([3]; applied at 250 g/ha): 5 (5=80-100%); POST Application AMARE, percentage damage (five point scale) ([4]; applied at 250 g/ha): 5 (5=80-100%); POST Application ECHCG, percentage damage (five point scale) ([5]; applied at 250 g/ha): 3 (3=40-59%); POST Application IPOHE, percentage damage (five point scale) ([6]; applied at 250 g/ha): 5 (5=80-100%); PRE Application SETFA, percentage damage (five point scale) ([7]; applied at 250 g/ha): 5 (5=80-100%); PRE Application ECHCG, percentage damage (five point scale) ([8]; applied at 250 g/ha): 5 (5=80-100%); POST Application SETFA, percentage damage (five point scale) ([9]; applied at 250 g/ha): 5 (5=80-100%); PRE Application ABUTH, percentage damage (five point scale) ([10]; applied at 250 g/ha): 5 (5=80-100%)
